# Results taken from patent publication US20230330080A1, “THERAPEUTIC TREATMENT USING PROTEIN KINASE C (PKC) INHIBITORS AND CYTOTOXIC AGENTS” (Cambridge Enterprise Limited, priority 2020, published 2023).
# Experiments:
# Format in all cases: cell-based, human
# [1] = system: CLL patient cells co-cultured with wild-type bone marrow derived stroma cells; experiment: Synergism of PKC-β inhibitors with Venetoclax in CLL/stroma co-culture (Compusyn, Bliss Independence model); details: PKC inhibitor 1.25, 2.5, 5 μM prior to Venetoclax 5, 10, 20 nM for 24 hours
# Protocol: Heatmaps reflect assessment values noted for respective compound combinations, with error (*) indicated below. A scale of 50 to −50, is applied to values, with 50 representing maximal synergism and −50 being maximal antagonism. Non-significant values are by default coloured as neither synergistic nor antagonistic;
# Approximately 20,000 wild-type bone marrow derived stroma cells were seeded into tissue culture wells and subsequently co-cultured with approximately 200,000 CLL patient cells. 24 hours thereafter, co-cultures were treated with Enzastaurin, Sotrastaurin or Midostaurin (1.25 μM, 2.5 μM, 5 μM) prior to treatment with Venetoclax. Co-cultures were subsequently treated with Venetoclax (5 nM, 10 nM, 20 nM) for 24 hours. Cells were subsequently evaluated for viability using flow cytometric analysis. Synergism was calculated using Compusyn Software (CRUK), within the Bliss Independence model (FIG. 5).
# [2] = system: CLL patient cells co-cultured with wild-type bone marrow derived stroma cells; experiment: 1-hour PKC inhibitor pre-treatment with washout before cytotoxic agent; viability of CLL/stroma co-cultures by Annexin-V-FITC and DAPI flow cytometry
# Protocol: (§1) Approximately 20,000 wild-type bone marrow derived stroma cells were seeded into tissue culture wells and subsequently co-cultured with approximately 200,000 CLL patient cells. 24 hours thereafter, co-cultures were treated with 5 μM Enzastaurin for 1 hour at the indicated time-points prior to treatment with Fludarabine or Venetoclax (FIGS. 1A and 2A). Equivalent PKC-β-inhibitor exposure was maintained through removal and subsequent washout of Enzastaurin-treated co-cultures. Co-cultures were centrifuged at 500 g for 5 minutes, prior to removal of Enzastaurin containing media. Washout with cell culture media, was followed by an additional centrifugation at 500 g for 5 minutes, and the replacement of washout media with fresh media. Respective co-cultures were subsequently treated with either Fludarabine (2.5 μM) or Venetoclax (2.5 nM) for 24 hours. Cells were subsequently evaluated for viability using Annexin-V-FITC and DAPI, or 4′,6-diamidino-2-phenylindole, staining on a flow cytometer (FIGS. 1B and 2B).
# as §1, with “Bendamustine (FIG. 7).” for “Fludarabine or Venetoclax (FIGS. 1A and 2A).”, “Bendamustine (15” for “either Fludarabine (2.5”, “μM)” for “μM) or Venetoclax (2.5 nM)”, “cytometer.” for “cytometer (FIGS. 1B and 2B).”
# Approximately 20,000 wild-type bone marrow derived stroma cells were seeded into tissue culture wells and subsequently co-cultured with approximately 200,000 CLL patient cells. 24 hours thereafter, co-cultures were treated with 5 μM Ruboxistaurin for 1 hour at the indicated time-points prior to treatment with Venetoclax (FIG. 10A). Equivalent PKC-β-inhibitor exposure was maintained through removal and subsequent washout of Ruboxistaurin-treated co-cultures. Co-cultures were centrifuged at 500 g for 5 minutes, prior to removal of Ruboxistaurin containing media. Washout with cell culture media, was followed by an additional centrifugation at 500 g for 5 minutes, and the replacement of washout media with fresh media. Respective co-cultures were subsequently treated with Venetoclax (5 nM) for 24 hours. Cells were subsequently evaluated for viability using Annexin-V-FITC and DAPI, or 4′,6-diamidino-2-phenylindole, staining on a flow cytometer (FIG. 10B).
# [3] = system: CLL patient cells co-cultured with wild-type bone marrow derived stroma cells; experiment: Continuous PKC inhibitor exposure begun before cytotoxic agent; viability of CLL/stroma co-cultures by Annexin-V-FITC and DAPI flow cytometry
# Protocol: Approximately 20,000 wild-type bone marrow derived stroma cells were seeded into tissue culture wells and subsequently co-cultured with approximately 200,000 CLL patient cells. 24 hours thereafter, co-cultures were treated with 5 μM Enzastaurin at the indicated time-points prior to treatment with Venetoclax (FIG. 3A). Co-cultures were subsequently treated with Venetoclax (2.5 nM) for 24 hours. Cells were subsequently evaluated for viability using Annexin-V-FITC and DAPI staining on a flow cytometer (FIG. 3B).
# Approximately 20,000 wild-type bone marrow derived stroma cells were seeded into tissue culture wells and subsequently co-cultured with approximately 200,000 CLL patient cells. 24 hours thereafter, co-cultures were treated with 5 μM Enzastaurin at the indicated time-points prior to treatment with Bendamustine (FIG. 8). Co-cultures were subsequently treated with Bendamustine (15 μM) for 24 hours. Cells were subsequently evaluated for viability using Annexin-V-FITC and DAPI staining on a flow cytometer (FIG. 8).
# Approximately 20,000 wild-type bone marrow derived stroma cells were seeded into tissue culture wells and subsequently co-cultured with approximately 200,000 CLL patient cells. 24 hours thereafter, co-cultures were treated with 1 μM Midostaurin at the indicated time-points prior to treatment with Bendamustine (FIG. 8). Co-cultures were subsequently treated with Bendamustine (15 μM) for 24 hours. Cells were subsequently evaluated for viability using Annexin-V-FITC and DAPI staining on a flow cytometer (FIG. 9).
# [4] = 5 μM Ruboxistaurin for 1 hour, then Venetoclax 5 nM for 24 hours
# [5] = 5 μM Enzastaurin for 1 hour, then Bendamustine 15 μM for 24 hours
# [6] = 5 μM Enzastaurin for 1 hour, then Fludarabine 2.5 μM for 24 hours
# [7] = 5 μM Enzastaurin for 1 hour, then Venetoclax 2.5 nM for 24 hours
compound,measurement,setting,value
"CN1CCN(c2nc(C3=C(c4c[nH]c5ccccc45)C(O)=NC3=O)c3ccccc3n2)CC1 [Sotrastaurin, 5-hydroxy-4-(1H-indol-3-yl)-3-[2-(4-methylpiperazin-1-yl)quinazolin-4-yl]-2H-pyrrol-2-one]","combinatorial treatment effect with Venetoclax (synergism, Bliss model)",[1],synergistic effects
CN(C)C[C@@H]1CCn2cc(c3ccccc32)C2=C(C(=O)NC2=O)c2cn(c3ccccc23)CCO1 [Ruboxistaurin],pre-dosing time points showing increased efficacy of Venetoclax,[2]; [4],1 to 6 h
same,pre-dosing time points with most significant effects on efficacy of Venetoclax,[2]; [4],1 to 4 h
"Cn1cc(C2=C(c3cn(C4CCN(Cc5ccccn5)CC4)c4ccccc34)C(=O)NC2=O)c2ccccc21 [Enzastaurin, 3-(1-methylindol-3-yl)-4-[1-[1-(pyridin-2-ylmethyl)piperidin-4-yl]indol-3-yl]pyrrole-2,5-dione]","combinatorial treatment effect with Venetoclax (synergism, Bliss model)",[1],synergistic effects
same,pre-dosing timepoints showing increased efficacy of Bendamustine,[2]; [5],2 to 6 h
same,pre-dosing timepoints with largest effect on efficacy of Bendamustine,[2]; [5],3 to 6 h
same,pre-dosing time points showing increased efficacy of Fludarabine,[2]; [6],2 to 6 h
same,pre-dosing time points with largest effect on efficacy of Fludarabine,[2]; [6],3 to 6 h
same,pre-dosing time points showing increased efficacy of Venetoclax,[2]; [7],2 to 6 h
same,pre-dosing time points with largest effect on efficacy of Venetoclax,[2]; [7],3 to 6 h
same,pre-dosing time giving greatest efficacy of Bendamustine,"[3]; continuous 5 μM Enzastaurin beginning 1, 2, 3, 4, 6, 8 hours prior to Bendamustine 15 μM for 24 hours",3 to 6 h
same,pre-dosing time giving greatest efficacy of Venetoclax,"[3]; continuous 5 μM Enzastaurin beginning 1, 2, 3, 4, 6, 12 hours prior to Venetoclax 2.5 nM for 24 hours",3 to 6 h
"CO[C@@H]1[C@H](N(C)C(=O)c2ccccc2)C[C@H]2O[C@]1(C)n1c3ccccc3c3c4c(c5c6ccccc6n2c5c31)C(=O)NC4 [Midostaurin, N-((5R,7R,8R,9S)-8-methoxy-9-methyl-16-oxo-6,7,8,9,15,16-hexahydro-5H,14H-17-oxa-4b,9a,15-triaza-5,9-methanodibenzo[b,h]cyclonona[jkl]cyclopenta[e]-as-indacen-7-yl)-N-methylbenzamide]",pre-dosing time giving greatest efficacy of Bendamustine,"[3]; continuous 1 μM Midostaurin beginning 1, 2, 3, 4, 6, 8 hours prior to Bendamustine 15 μM for 24 hours",3 to 8 h
